Measurements: patent publication US8314092B2, “Substituted [(5H-pyrrolo[2,1-c][1,4]benzodiazepin-11-yl)piperazin-1-yl]-2,2-dimethylpropanoic acid compounds as dual activity H1 inverse agonists/5-HT2A antagonists” (Eli Lilly and Company, priority 2011, dated 2012)
pKi: −log10 of the molar value. Counter-ions that a name gives are not always drawn.

Key:
[1] = target: T1, recombinant 5-HT2c receptor (human) (Homo sapiens, UniProt P28335); experiment: 5-HT2c competition binding assay ([125I]-DOI SPA)
T1 construct: expressed in transfected cells
T1 sequence (P28335 33-458): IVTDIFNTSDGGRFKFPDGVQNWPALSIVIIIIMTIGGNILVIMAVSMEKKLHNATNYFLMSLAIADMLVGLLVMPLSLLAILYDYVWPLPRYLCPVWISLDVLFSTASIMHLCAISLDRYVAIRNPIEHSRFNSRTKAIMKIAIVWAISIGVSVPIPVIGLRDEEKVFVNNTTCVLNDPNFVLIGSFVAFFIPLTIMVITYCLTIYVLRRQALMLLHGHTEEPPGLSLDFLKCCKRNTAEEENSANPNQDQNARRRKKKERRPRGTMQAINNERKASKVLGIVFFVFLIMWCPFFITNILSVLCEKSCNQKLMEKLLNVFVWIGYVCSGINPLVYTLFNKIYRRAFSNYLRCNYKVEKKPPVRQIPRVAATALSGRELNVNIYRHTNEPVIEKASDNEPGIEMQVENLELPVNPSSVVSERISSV
Description: [^125I]-(±)DOI binding experiments are carried out in SPA 96-well format. Membranes used in this assay are prepared from AV-12 cells stably expressing recombinant 5-HT2c receptor (human). The incubation is initiated by the addition of a mixture of WGA PVT SPA beads (0.5 mg/well, Perkin Elmer (MA, USA), RPNQ0001) and 2.5 μg membranes to assay buffer (50 mM Tris-HCl, 10 mM MgCl2, 0.5 mM EDTA, 10 μM pargyline, 0.1% ascorbic acid, pH7.4) containing 0.2 nM [[^125I]-(±)DOI and varying concentrations of the test compound (10 point concentration response curves). Non-specific binding is determined in the presence of 20 μM 1-(1-Naphthyl)piperazine. Samples are incubated for four hours at room temperature (22° C.) and then read in a Microbeta Trilux.
Curves are evaluated using a 4-parameter logistic nonlinear equation to obtain the concentration of competitor causing 50% inhibition of radioligand binding (IC50). Equilibrium dissociation constants (Ki) are calculated according to the equation Ki=IC50/(1+L/Kd), where L equals the concentration of radioligand used in the experiment and Kd equals the equilibrium dissociation constant of the radioligand for the receptor, determined from standard saturation analysis or homologous competition experiments. […]

Wistar rats = experiment: Sleep and behavioral monitoring in rats (EEG, EMG, motion); type: in vivo; details: rat; for Rebound Insomnia, Adj. Mean: NREM + REM sleep in 7th-9th hours post-treatment; for Rebound Insomnia, Adj. Mean / REM inhibition, Adj. Mean / Cumulative NREM sleep, Adj. Mean / Cumulative Total sleep, Adj. Mean / Locomotor Activity Intensity, Adj. Mean: difference from vehicle; for REM inhibition, Adj. Mean: REM sleep in first 12 hours post-treatment; for Cumulative NREM sleep, Adj. Mean / Cumulative Total sleep, Adj. Mean / Locomotor Activity Intensity, Adj. Mean / Average Sleep Bout, Adj. Mean / Longest Sleep Bout, Adj. Mean: first 6 hours post-treatment; for Average Sleep Bout, Adj. Mean / Longest Sleep Bout, Adj. Mean: n-fold increase over vehicle controls
Description: Sleep and behavioral monitoring in rats: Representative compounds of the present invention are tested in rats for their ability to increase the amount of sleep or decrease sleep interruption or both without undesired effects such as inhibition of REM sleep, waking motor impairment, and/or rebound insomnia. Test animals are continuously monitored by electro-encephalograms (EEG), electromyograms (EMG), and motion to measure cumulative nonREM sleep, cumulative total sleep, average sleep bout duration, longest sleep bout duration, rebound insomnia, REM sleep inhibition and locomotor activity intensity during wakefulness. Methods for such studies are known in the art (see for example methods described in Edgar D M, Seidel W F. Modafinil induces wakefulness without intensifying motor activity or subsequent rebound hypersomnolence in the rat. J Pharmacology & Experimental Therapeutics 1997; 283: 757-769; van Gelder R N, Edgar D M, Dement W C. Real-time automated sleep scoring: validation of a microcomputer-based system for mice. Sleep 1991, 14: 48-55; and Gross B A, Walsh C M, Turakhia A A, Booth V, Mashour G A, Poe G R. Open-source logic-based automated sleep scoring software using electrophysiological recordings in rats. J Neurosci Methods. 2009; 184(1):10-8.) Studies are conducted as follows: Animal preparation. Adult, male Wistar rats (approximately 270-300 g at time of surgery) are surgically fitted for chronic recording of EEG, EMG, and motion as follows: Rats are surgically prepared with a cranial implant consisting of four stainless steel screws for EEG recording (two frontal [3.9 mm anterior from bregma, and ±2.0 mm mediolaterally] and two occipital [6.4 mm posterior from bregma, ±5.5 mm mediolaterally]), and with two Teflon-coated stainless steel wires for EMG recording (positioned under the nuchal trapezoid muscles). All leads are soldered to a miniature connector (Microtech, Boothwyn, Pa.) prior to surgery. The implant assembly is affixed to the skull by the combination of the stainless steel EEG recording screws, cyanoacrylate applied between the implant connector and skull, and dental acrylic. Locomotor activity is monitored via a miniature transmitter (Minimitter PDT4000G, Philips Respironics, Bend, Oreg.) surgically placed into the abdomen. At least 3 weeks are allowed for recovery. Recording environment. Each rat is housed individually within a microisolator cage modified with an inserted polycarbonate filter-top riser to allow more vertical headroom. A flexible cable that minimally restricts movement is connected at one end to a commutator affixed to the cage top and at the other end to the animal's cranial implant. Each cage is located within separate, ventilated compartments of a stainless steel sleep-wake recording chamber. Food and water are available ad libitum and the ambient temperature is maintained at about 23±1° C. A 24-hr. light-dark cycle (LD 12:12) using fluorescent light is maintained throughout the study. Relative humidity averages approximately 50%. Animals are undisturbed for at least 30 hrs before and after each treatment. Study design and dosing. The vehicle (placebo, methylcellulose 15 centipoise 0.25% in water) or one of the test compound dose levels is administered orally at 1 mL/kg pseudo-randomly such that no rat receives the same treatment twice, and no rat receives more than two of the 8 treatments in any one study. Each rat is removed from its cage for about a minute to be weighed and treated. At least 6 days “washout” period precede and follow each treatment. Data collection. […]

[2] = PO, 6 hour period after treatment

SMILES: Cc1cc2n(c1)Cc1cc(Cl)ccc1N=C2N1CCN(CC(C)(C)C(=O)O)CC1 [Example 13, 3-[4-(7-Chloro-2-methyl-5H-pyrrolo[2,1-c][1,4]benzodiazepin-11-yl)piperazin-1-yl]-2,2-dimethylpropanoic acid dihydrochloride]
- pKi [1]: 5.63
- Rebound Insomnia, Adj. Mean (Wistar rats; 0.03 mg/kg PO): -0.7 min
- REM inhibition, Adj. Mean (Wistar rats; 0.03 mg/kg PO): 1.8 min
- Cumulative NREM sleep, Adj. Mean (Wistar rats; 0.03 mg/kg PO): 5.1 min
- Cumulative Total sleep, Adj. Mean (Wistar rats; 0.03 mg/kg PO): 7.3 min
- Locomotor Activity Intensity, Adj. Mean (Wistar rats; 0.03 mg/kg PO): −0.97 LMA counts per minute of EEG-defined wakefulness
- Average Sleep Bout, Adj. Mean (Wistar rats; 0.03 mg/kg PO): 1.1 n-fold
- Longest Sleep Bout, Adj. Mean (Wistar rats; 0.03 mg/kg PO): 1.3 n-fold
- Rebound Insomnia, Adj. Mean (Wistar rats; 0.10 mg/kg PO): -5.4 min
- REM inhibition, Adj. Mean (Wistar rats; 0.10 mg/kg PO): 1.0 min
- Cumulative NREM sleep, Adj. Mean (Wistar rats; 0.10 mg/kg PO): 5.9 min
- Cumulative Total sleep, Adj. Mean (Wistar rats; 0.10 mg/kg PO): 5.9 min
- Locomotor Activity Intensity, Adj. Mean (Wistar rats; 0.10 mg/kg PO): −0.35 LMA counts per minute of EEG-defined wakefulness
- Average Sleep Bout, Adj. Mean (Wistar rats; 0.10 mg/kg PO): 1.1 n-fold
- Longest Sleep Bout, Adj. Mean (Wistar rats; 0.10 mg/kg PO): 1.7 n-fold
- Rebound Insomnia, Adj. Mean (Wistar rats; 0.25 mg/kg PO): -1.9 min
- REM inhibition, Adj. Mean (Wistar rats; 0.25 mg/kg PO): 4.7 min
- Cumulative NREM sleep, Adj. Mean (Wistar rats; 0.25 mg/kg PO): 15.2 min
- Cumulative Total sleep, Adj. Mean (Wistar rats; 0.25 mg/kg PO): 17.7 min
- Locomotor Activity Intensity, Adj. Mean (Wistar rats; 0.25 mg/kg PO): −0.58 LMA counts per minute of EEG-defined wakefulness
- Average Sleep Bout, Adj. Mean (Wistar rats; 0.25 mg/kg PO): 1.2 n-fold
- Longest Sleep Bout, Adj. Mean (Wistar rats; 0.25 mg/kg PO): 1.7 n-fold
- Rebound Insomnia, Adj. Mean (Wistar rats; 0.50 mg/kg PO): -7.2 min
- REM inhibition, Adj. Mean (Wistar rats; 0.50 mg/kg PO): 5.8 min
- Cumulative NREM sleep, Adj. Mean (Wistar rats; 0.50 mg/kg PO): 22.2 min
- Cumulative Total sleep, Adj. Mean (Wistar rats; 0.50 mg/kg PO): 25.1 min
- Locomotor Activity Intensity, Adj. Mean (Wistar rats; 0.50 mg/kg PO): −0.14 LMA counts per minute of EEG-defined wakefulness
- Average Sleep Bout, Adj. Mean (Wistar rats; 0.50 mg/kg PO): 1.4 n-fold
- Longest Sleep Bout, Adj. Mean (Wistar rats; 0.50 mg/kg PO): 1.8 n-fold
- Rebound Insomnia, Adj. Mean (Wistar rats; 1 mg/kg PO): -9.7 min
- REM inhibition, Adj. Mean (Wistar rats; 1 mg/kg PO): 2.6 min
- Cumulative NREM sleep, Adj. Mean (Wistar rats; 1 mg/kg PO): 28.0 min
- Cumulative Total sleep, Adj. Mean (Wistar rats; 1 mg/kg PO): 30.6 min
- Locomotor Activity Intensity, Adj. Mean (Wistar rats; 1 mg/kg PO): −2.94 LMA counts per minute of EEG-defined wakefulness
- Average Sleep Bout, Adj. Mean (Wistar rats; 1 mg/kg PO): 1.6 n-fold
- Longest Sleep Bout, Adj. Mean (Wistar rats; 1 mg/kg PO): 2.5 n-fold
- REM sleep inhibition (in words) (Wistar rats; 3 mg/kg): without significant
- cumulative NREM sleep time (in words) (Wistar rats; 3 mg/kg): significantly increase
- cumulative total sleep time (in words) (Wistar rats; 3 mg/kg): significantly increase
- inhibition of locomotor intensity (LMI) (in words) (Wistar rats; 3 mg/kg): without significant
- rebound insomnia (in words) (Wistar rats; 3 mg/kg): without significant
- Rebound Insomnia, Adj. Mean (Wistar rats; 3 mg/kg PO): -7.8 min
- REM inhibition, Adj. Mean (Wistar rats; 3 mg/kg PO): 7.0 min
- Cumulative NREM sleep, Adj. Mean (Wistar rats; 3 mg/kg PO): 39.5 min
- Cumulative Total sleep, Adj. Mean (Wistar rats; 3 mg/kg PO): 42.3 min
- Locomotor Activity Intensity, Adj. Mean (Wistar rats; 3 mg/kg PO): −1.49 LMA counts per minute of EEG-defined wakefulness
- Average Sleep Bout, Adj. Mean (Wistar rats; 3 mg/kg PO): 1.8 n-fold
- Longest Sleep Bout, Adj. Mean (Wistar rats; 3 mg/kg PO): 2.7 n-fold
- Rebound Insomnia, Adj. Mean (Wistar rats; 10 mg/kg PO): 3.1 min
- REM inhibition, Adj. Mean (Wistar rats; 10 mg/kg PO): 2.9 min
- Cumulative NREM sleep, Adj. Mean (Wistar rats; 10 mg/kg PO): 51.8 min
- Cumulative Total sleep, Adj. Mean (Wistar rats; 10 mg/kg PO): 52.8 min
- Locomotor Activity Intensity, Adj. Mean (Wistar rats; 10 mg/kg PO): −0.11 LMA counts per minute of EEG-defined wakefulness
- Average Sleep Bout, Adj. Mean (Wistar rats; 10 mg/kg PO): 2.3 n-fold
- Longest Sleep Bout, Adj. Mean (Wistar rats; 10 mg/kg PO): 3.1 n-fold
- Estimated efficacy dose (mg/kg), NREM accumulation = 30 min (Wistar rats; [2]): 1.2 mg/kg
- Estimated efficacy dose (mg/kg), average sleep bout (1.5-fold increase) (Wistar rats; [2]): 0.77 mg/kg
- Estimated efficacy dose (mg/kg), longest sleep bout (1.75-fold increase) (Wistar rats; [2]): 0.21 mg/kg
- Estimated efficacy dose (mg/kg), total sleep accumulation = 25 min (Wistar rats; [2]): 0.58 mg/kg
